Measurements reported in patent US4863918A, “Enamine quaternary compounds, methods of making and their use as muscle relaxants” (BOC, Inc., priority 1988, dated 1989).

What was measured:
paw twitch [1] = experiment: Twitch depression (muscle relaxant effect) in anesthetized rabbits; rabbit paw twitch; assay type: in vivo, New Zealand White rabbits; settings: for ED90: Oryctolagus cuniculus, read-out: Equi-efficacious dose
Description: [The procedure below names another organism; the source lists this organism under the same test.] (§1) Mongrel dogs were injected with 50 mg/kg of pentobarbital until the onset of anesthesia as determined by the eyeblink reflex test. The injectable solutions prepared above were administered intravenously to the anesthesized mongrel dogs and measurements were made of the muscle relaxant effect including maximum twitch depression, onset, duration and recovery time in a clinically known manner. Each of the subjects were compared with a control animal receiving an injection of distilled water.
The same compound of the present invention as in
A number of compounds in accordance with the present invention were tested for their neuromuscular blockade Properties. Specifically, the acid addition salts of the compounds were dissolved in sterile water for injection.

[2] = Cardiovascular change (HR, BP) at equi-efficacious dose in rabbits; assay type: in vivo; settings: rabbit
paw twitch [3] = experiment: Twitch depression (muscle relaxant effect) in anesthetized dogs; dog paw twitch; assay type: in vivo, mongrel dogs; settings: Table V
Description: as §1

[4] = Cardiovascular change (HR, BP) at equi-efficacious dose in dogs; assay type: in vivo; settings: Table V, dog, at equi-efficacious dose
[5] = Table VI, rabbit paw twitch, at indicated dose
[6] = Table VII, rabbit paw twitch, at indicated dose
[7] = Table IV, rabbit, at equi-efficacious dose
[8] = Table IV, at equi-efficacious dose
[9] = Table VIII, rabbit paw twitch, at indicated dose
[10] = Table VI, rabbit paw twitch, at indicated dose, in s
[11] = Table IV, rabbit, at equi-efficacious dose, depolarizer, based on twitch recovery not to-f

CCOC(=O)C[N+](CC)=C1C=C(N2CCC3(CC2)OCC2(CO3)COC3(CCN(C4=CC(=[N+](CC)CC(=O)OCC)CC(C)(C)C4)CC3)OC2)CC(C)(C)C1
Onset (paw twitch [1]; [5]): 39 s

COC1C[N+](=C2C=C(N3CCCC4(C3)OCC3(CO4)COC4(CCCN(C5=CC(=[N+]6CCC(OC)(OC)C(OC)C6)CC(C)(C)C5)C4)OC3)CC(C)(C)C2)CCC1(OC)OC (stereo not drawn)
Onset (paw twitch [1]; [6]): 44.4 s

COc1cc(CC2c3c(cc(OC)c(OC)c3OC)CC[N+]2(C)CCCOC(=O)CCC(=O)OCCC[N+]2(C)CCc3cc(OC)c(OC)c(OC)c3C2Cc2cc(OC)c(OC)c(OC)c2)cc(OC)c1OC (stereo not drawn) [BW938]
Equi-efficacious dose (paw twitch [1]; Table IV, rabbit paw twitch): 0.010 mg/kg
Duration (DURAT.) (paw twitch [1]; [7]): 167.0 min
Onset (paw twitch [1]; [7]): 282.4 s
Recovery (RECOV.) (paw twitch [1]; [7]): 101.7 min
BP % ([2]; in vivo): -5.2%
HR % ([2]; in vivo): -3.8%

COc1cc2c(cc1OC)C(Cc1cc(OC)c(OC)c(OC)c1)[N+](C)(CCCOC(=O)CCC=CCCC(=O)OCCC[N+]1(C)CCc3cc(OC)c(OC)cc3C1Cc1cc(OC)c(OC)c(OC)c1)CC2 (stereo not drawn) [BW1090]
ED90 (paw twitch [3]; Canis lupus familiaris, iv, dog paw twitch, read-out: Equi-efficacious dose): 0.39 mg/kg
Duration (DURAT.) (paw twitch [3]; dog, at equi-efficacious dose): 75.0 min
Onset (paw twitch [3]; dog, at equi-efficacious dose): 195.5 s
Recovery (RECOV.) (paw twitch [3]; dog, at equi-efficacious dose): 70.3 min
ED90 (paw twitch [1]; Table IV, rabbit paw twitch): 0.504 mg/kg
Duration (DURAT.) (paw twitch [1]; [7]): 8.7 min
Onset (paw twitch [1]; [7]): 48.5 s
Recovery (RECOV.) (paw twitch [1]; [7]): 7.3 min
BP % [2, 8]: 1.2%
HR % [2, 8]: -0.4%
BP % [4]: -3.1%
HR % [4]: 0.7%

CC1C[N+](=C2C=C(N3CCCC4(CC3)OCC3(CO4)COC4(CCCN(C5=CC(=[N+]6CCC7(OCCO7)C(C)C6)CC(C)(C)C5)CC4)OC3)CC(C)(C)C2)CCC12OCCO2 (stereo not drawn) [No. 11]
Onset (paw twitch [1]; [9]): 62.1 s

CC1(C)CC(N2CCCC3(C2)OCC2(CO3)COC3(CCCN(C4=CC(=[N+]5CCCC6(CC5)OCCO6)CC(C)(C)C4)C3)OC2)=CC(=[N+]2CCCC3(CC2)OCCO3)C1 (stereo not drawn) [No. 13]
Onset (paw twitch [1]; [6]): 36.5 s

CC1(C)CC(N2CCCC3(CC2)OCC2(CO3)COC3(CCCN(C4=CC(=[N+]5CCCCCC5)CC(C)(C)C4)CC3)OC2)=CC(=[N+]2CCCCCC2)C1 (stereo not drawn) [No. 13]
Onset (paw twitch [1]; [9]): 88.3 s

CC1(C)CC(N2CCCC3(CC2)OCC2(CO3)COC3(CCCN(C4=CC(=[N+]5CCCC6(C5)OCCO6)CC(C)(C)C4)CC3)OC2)=CC(=[N+]2CCCC3(C2)OCCO3)C1 (stereo not drawn) [No. 14]
Onset (paw twitch [1]; [9]): 44.5 s

CC[N+](CC1CC1)=C1C=C(N2CCCC3(C2)OCC2(CO3)COC3(CCCN(C4=CC(=[N+](CC)CC5CC5)CC(C)(C)C4)C3)OC2)CC(C)(C)C1 (stereo not drawn) [No. 17]
Onset (paw twitch [1]; [6]): 39.3 s

CC1CCC[N+](=C2C=C(N3CCCC4(C3)OCC3(CO4)COC4(CCCN(C5=CC(=[N+]6CCCC(C)C6)CC(C)(C)C5)C4)OC3)CC(C)(C)C2)C1 (stereo not drawn) [No. 20]
Onset (paw twitch [1]; [6]): 44.9 s

CC[N+](CCC1OCCO1)=C1C=C(N2CCCC3(C2)OCC2(CO3)COC3(CCCN(C4=CC(=[N+](CC)CCC5OCCO5)CC(C)(C)C4)C3)OC2)CC(C)(C)C1 (stereo not drawn) [No. 21]
Onset (paw twitch [1]; [6]): 33.3 s

CC1(C)CC(N2CCC3(CC2)OCC2(CO3)COC3(CCN(C4=CC(=[N+](Cc5ccco5)Cc5ccco5)CC(C)(C)C4)CC3)OC2)=CC(=[N+](Cc2ccco2)Cc2ccco2)C1 [compound 11]
Onset (paw twitch [1]; [5]): 77.3 s

CC[N+](Cc1cccs1)=C1C=C(N2CCC3(CC2)OCC2(CO3)COC3(CCN(C4=CC(=[N+](CC)Cc5cccs5)CC(C)(C)C4)CC3)OC2)CC(C)(C)C1 [compound 13]
Onset (paw twitch [1]; [5]): 88.1 s

CC1(C)CC(N2CCC3(CC2)OCC2(CO3)COC3(CCN(C4=CC(=[N+]5CCCC6(CC5)OCCO6)CC(C)(C)C4)CC3)OC2)=CC(=[N+]2CCCC3(CC2)OCCO3)C1 [compound 14]
Onset (paw twitch [1]; [5]): 52.8 s

CC1(C)CC(N2CCC3(CC2)OCC2(CO3)COC3(CCN(C4=CC(=[N+]5CC6CCC(CC6)C5)CC(C)(C)C4)CC3)OC2)=CC(=[N+]2CC3CCC(CC3)C2)C1 [compound 17]
Onset (paw twitch [1]; [5]): 49.6 s

CC1(C)CC(N2CCC3(CC2)OCC2(CO3)COC3(CCN(C4=CC(=[N+]5CCCCCCC5)CC(C)(C)C4)CC3)OC2)=CC(=[N+]2CCCCCCC2)C1 [compound 20]
Onset (paw twitch [1]; [5]): 57.5 s

CCC[N+](CC1CC1)=C1C=C(N2CCC3(CC2)OCC2(CO3)COC3(CCN(C4=CC(=[N+](CCC)CC5CC5)CC(C)(C)C4)CC3)OC2)CC(C)(C)C1 [compound 21]
Onset (paw twitch [1]; [5]): 47.7 s

CC1(C)CC(N2CCC3(CC2)OCC2(CO3)COC3(CCN(C4=CC(=[N+]5CCCCCC5)CC(C)(C)C4)CC3)OC2)=CC(=[N+]2CCCCCC2)C1 [compound 24]
Onset (paw twitch [1]; [5]): 64 s

CC1CC[N+](=C2C=C(N3CCC4(CC3)OCC3(CO4)COC4(CCN(C5=CC(=[N+]6CCC(C)CC6)CC(C)(C)C5)CC4)OC3)CC(C)(C)C2)CC1 (stereo not drawn) [compound 28]
Onset (paw twitch [1]; [5]): 49.9 s

CC1(C)CC(N2CCC3(CC2)OCC2(CO3)COC3(CCN(C4=CC(=[N+]5CCCCCC5)CC(C)(C)C4)CC3)OC2)=CC(=[N+]2CCCCCC2)C1 [compound 29]
Onset (paw twitch [1]; [5]): 56.1 s

CC1(C)CC(N2CCC3(CC2)OCC2(CO3)COC3(CCN(C4=CC(=[N+]5CCC(c6ccccc6)CC5)CC(C)(C)C4)CC3)OC2)=CC(=[N+]2CCC(c3ccccc3)CC2)C1 (stereo not drawn) [compound 31]
Onset (paw twitch [1]; [10]): 105.6

CC1CCC[N+](=C2C=C(N3CCC4(CC3)OCC3(CO4)COC4(CCN(C5=CC(=[N+]6CCCC(C)C6)CC(C)(C)C5)CC4)OC3)CC(C)(C)C2)C1 (stereo not drawn) [compound 33]
Onset (paw twitch [1]; [5]): 53.1 s

C=CC[N+](CC=C)=C1C=C(N2CCC3(CC2)OCC2(CO3)COC3(CCN(C4=CC(=[N+](CC=C)CC=C)CC(C)(C)C4)CC3)OC2)CC(C)(C)C1 [compound 35]
Onset (paw twitch [1]; [5]): 61.9 s

C[N+](CCc1ccccc1)=C1C=C(N2CCC3(CC2)OCC2(CO3)COC3(CCN(C4=CC(=[N+](C)CCc5ccccc5)CC(C)(C)C4)CC3)OC2)CC(C)(C)C1 [compound 36]
Onset (paw twitch [1]; [5]): 81.9 s

CC1=C(N2CCC3(CC2)OCC2(CO3)COC3(CCN(C4=C(C)C(=[N+]5CCCCCC5)CC4)CC3)OC2)CCC1=[N+]1CCCCCC1 [compound 38]
Onset (paw twitch [1]; [10]): 100.0

CC1(C)CC(N2CCC3(CC2)OCC2(CO3)COC3(CCN(C4=CC(=[N+]5CC6(C)CC5CC(C)(C)C6)CC(C)(C)C4)CC3)OC2)=CC(=[N+]2CC3(C)CC2CC(C)(C)C3)C1 [compound 39]
Onset (paw twitch [1]; [5]): 75.9 s

CC[N+](CC)=C1C=C(N2CCC3(CC2)OCC2(CO3)COC3(CCN(C4=CC(=[N+](CC)CC)CC(C)C4)CC3)OC2)CC(C)C1 (stereo not drawn) [compound 41]
Onset (paw twitch [1]; [5]): 51 s

CC1CC(N2CCC3(CC2)OCC2(CO3)COC3(CCN(C4=CC(=[N+]5CCCC6(CC5)OCCO6)CC(C)C4)CC3)OC2)=CC(=[N+]2CCCC3(CC2)OCCO3)C1 (stereo not drawn) [compound 42]
Onset (paw twitch [1]; [5]): 75.6 s

CC1(C)CC(N2CCC3(CC2)OCC2(CO3)COC3(CCN(C4=CC(=[N+]5CCCCCC5)CC(C)(C)C4)CC3)OC2)=CC(=[N+]2CCCCCC2)C1 [compound 44]
Onset (paw twitch [1]; [5]): 67.2 s

CC1(C)CC(N2CCC3(CC2)OCC2(CO3)COC3(CCN(C4=CC(=[N+]5CCCC5)CC(C)(C)C4)CC3)OC2)=CC(=[N+]2CCCC2)C1 [compound 46]
Onset (paw twitch [1]; [5]): 62.8 s

CC1(C)CC(N2CCC3(CC2)OCC2(CO3)COC3(CCN(C4=CC(=[N+]5CCc6ccccc6C5)CC(C)(C)C4)CC3)OC2)=CC(=[N+]2CCc3ccccc3C2)C1 [compound 48]
Onset (paw twitch [1]; [10]): 113.5

CC1(C)CC(N2CCC3(CC2)OCC2(CO3)COC3(CCN(C4=CC(=[N+]5CCOCC5)CC(C)(C)C4)CC3)OC2)=CC(=[N+]2CCOCC2)C1 [compound 49]
Onset (paw twitch [1]; [5]): 58.8 s

CC1(C)CC(N2CCC3(CC2)OCC2(CO3)COC3(CCN(C4=CC(=[N+]5CCCCC5)CC(C)(C)C4)CC3)OC2)=CC(=[N+]2CCCCC2)C1 [compound 50]
Onset (paw twitch [1]; [5]): 59.9 s

CC1(C)CC(N2CCC3(CC2)OCC2(CO3)COC3(CCN(C4=CC(=[N+](CC5CC5)CC(F)(F)F)CC(C)(C)C4)CC3)OC2)=CC(=[N+](CC2CC2)CC(F)(F)F)C1 [compound 51]
Onset (paw twitch [1]; [5]): 51 s

CC1(C)CC(N2CCC3(CC2)OCC2(CO3)COC3(CCN(C4=CC(=[N+](CC5CC5)CC5CC5)CC(C)(C)C4)CC3)OC2)=CC(=[N+](CC2CC2)CC2CC2)C1 [compound 52]
Onset (paw twitch [1]; [5]): 48.5 s

CC[N+](CCC1OCCO1)=C1C=C(N2CCC3(CC2)OCC2(CO3)COC3(CCN(C4=CC(=[N+](CC)CCC5OCCO5)CC(C)(C)C4)CC3)OC2)CC(C)(C)C1 [compound 53]
Onset (paw twitch [1]; [5]): 58.6 s

CC[N+](CC)=C1C=C(N2CCC3(CC2)OCC2(CO3)COC3(CCN(C4=CC(=[N+](CC)CC)CC(C)C4)CC3)OC2)CC(C)C1 (stereo not drawn) [compound 54]
Onset (paw twitch [1]; [5]): 51 s

CCC[N+](CC1CC1)=C1C=C(N2CCC3(CC2)OCC2(CO3)COC3(CCN(C4=CC(=[N+](CCC)CC5CC5)CC(C)C4)CC3)OC2)CC(C)C1 (stereo not drawn) [compound 56]
Onset (paw twitch [1]; [5]): 62.3 s

C[N+](C)(C)CCCCCCCCCC[N+](C)(C)C [decamethonium]
ED90 (paw twitch [1]; Table IV, rabbit paw twitch): 0.165 mg/kg
Onset (paw twitch [1]; [7]): 104.0 s
Duration (DURAT.) (paw twitch [1]; [11]): 41.7 min
Recovery (RECOV.) (paw twitch [1]; [11]): 41.7 min
BP % [2, 8]: -2.6%
HR % [2, 8]: -2.8%

COc1ccc2cc1Oc1cc3c(cc1OC)CC[N+](C)(C)[C@H]3Cc1ccc(cc1)Oc1c(OC)c(OC)cc3c1[C@@H](C2)[N+](C)(C)CC3 [metocurine]
ED90 (paw twitch [1]; Table IV, rabbit paw twitch): 0.025 mg/kg
Duration (DURAT.) (paw twitch [1]; [7]): 37.8 min
Onset (paw twitch [1]; [7]): 72.4 s
Recovery (RECOV.) (paw twitch [1]; [7]): 34.9 min
BP % [2, 8]: -1.6%
HR % [2, 8]: 0.2%

descuronium
Equi-efficacious dose (paw twitch [1]; Table IV, rabbit paw twitch): 0.053 mg/kg
Duration (DURAT.) (paw twitch [1]; [7]): 21.5 min
Onset (paw twitch [1]; [7]): 129.4 s
Recovery (RECOV.) (paw twitch [1]; [7]): 13.1 min
BP % ([2]; in vivo): -7.6%
HR % ([2]; in vivo): -4.1%
